According to patent US7199148B2, “Broadspectrum substituted oxindole sulfonamide HIV protease inhibitors” (priority 2002, dated 2007):
Read-outs that look alike come from different tables or passages of the source.

Legend:
Format in all cases: cell-based
HIV strain C = test: Antiviral spectrum, clinically isolated mutant strain C; conditions: FR=EC50(mutant strain)/EC50(HIV-1 strain LAI)
Protocol: (§1) HIV- or mock-infected MT4 cells were incubated for five days in the presence of various concentrations of the inhibitor. At the end of the incubation period, all HIV-infected cells have been killed by the replicating virus in the control cultures in the absence of any inhibitor. Cell viability is measured by measuring the concentration of MTT, a yellow, water soluble tetrazolium dye that is converted to a purple, water insoluble formazan in the mitochondria of living cells only. Upon solubilization of the resulting formazan crystals with isopropanol, the absorbance of the solution is monitored at 540 nm. The values correlate directly to the number of living cells remaining in the culture at the completion of the five day incubation. The inhibitory activity of the compound was monitored on the virus-infected cells and was expressed as EC50 and EC90. These values represent the amount of the compound required to protect 50% and 90%, respectively, of the cells from the cytopathogenic effect of the virus. The toxicity of the compound was measured on the mock-infected cells and was expressed as CC50, which represents the concentration of compound required to inhibit the growth of the cells by 50%. The selectivity index (SI) (ratio CC50/EC50) is an indication of the selectivity of the anti-HIV activity of the inhibitor. Wherever results are reported as e.g. pEC50 or pCC50 values, the result is expressed as the negative logarithm of the result expressed as EC50 or CC50 respectively.
(§2) Because of the increasing emergence of drug resistant HIV strains, the present compounds were tested for their potency against clinically isolated HIV strains harboring several mutations (Table 2 and 3). These mutations are associated with resistance to protease inhibitors and result in viruses that show various degrees of phenotypic cross-resistance to the currently commercially available drugs such as for instance saquinavir, ritonavir, nelfinavir, indinavir and amprenavir.
(§3) As a measure of the broad spectrum activity of the present compounds, the fold resistance (FR), defined as FR=EC50(mutant strain)/EC50(HIV-1 strain LAI), was determined.

[1] = Toxicity on mock-infected MT4 cells (MTT); conditions: human
Protocol: as §1, §3

HIV strain A = test: Antiviral spectrum, clinically isolated mutant strain A; conditions: FR=EC50(mutant strain)/EC50(HIV-1 strain LAI)
Protocol: as §1, §2, §3

HIV strain F = test: Antiviral spectrum, clinically isolated mutant strain F; conditions: FR=EC50(mutant strain)/EC50(HIV-1 strain LAI)
Protocol: as §1, §2, §3

HIV-1 strain LAI = test: Cellular anti-HIV assay, MT4 cells, MTT read-out, wild type strain
Protocol: as §1, with “The compounds of the present invention were examined for anti-viral activity in a cellular assay. […] The cellular assay was performed according to the following procedure. HIV- or” for “HIV- or”

HIV strain D = test: Antiviral spectrum, clinically isolated mutant strain D; conditions: FR=EC50(mutant strain)/EC50(HIV-1 strain LAI)
Protocol: as §1, §2, §3

HIV strain B = test: Antiviral spectrum, clinically isolated mutant strain B; conditions: FR=EC50(mutant strain)/EC50(HIV-1 strain LAI)
Protocol: as §1, §2, §3

HIV strain E = test: Antiviral spectrum, clinically isolated mutant strain E; conditions: FR=EC50(mutant strain)/EC50(HIV-1 strain LAI)
Protocol: as §1, §2, §3

[2] = Human immunodeficiency virus 1, MT4, Table 3, wild type HIV-LAI strain, read-out: WT (pEC50) (converted)
[3] = Human immunodeficiency virus 1, 120 h, Table 1, MT4 cells, five days incubation, HIV-1 strain LAI, read-out: pEC50 (converted)

Structure (SMILES)	C (FR towards mutant C) (HIV strain C)	CC50 at 5 days [1] [µM]	A (FR towards mutant A) (HIV strain A)	F (FR towards mutant F) (HIV strain F)	EC50 (HIV-1 strain LAI; [2]) [nM]	D (FR towards mutant D) (HIV strain D)	B (FR towards mutant B) (HIV strain B)	E (FR towards mutant E) (HIV strain E)	EC50 (HIV-1 strain LAI; [3]) [nM]	EC50 (HIV-1 strain LAI; Human immunodeficiency virus 1, MT4, read-out: WT (pEC50) (converted)) [nM]
CC(C)CN(C[C@@H](O)[C@H](Cc1ccccc1)NC(=O)OC1COC2OCCC12)S(=O)(=O)c1ccc2c(c1)CC(=O)N2 (stereo in doubt) [Compound 21, Hexahydrofuro[2,3-b]furan-3-yl N-(1-benzyl-2-hydroxy-3-{isobutyl[(2-oxo-2,3-dihydro-1H-indol-5-yl)sulfonyl]amino}propyl}carbamate]	0.7	100	1.0	1.2	158	0.33	1.1	0.56	–	–
Cc1ccc(C=C2C(=O)Nc3ccc(S(=O)(=O)N(CC(C)C)CC(O)C(Cc4ccccc4)NC(=O)OC4COC5OCCC45)cc32)s1 (stereo not shown) [Compound 3, (1-Benzyl-2-hydroxy-3-{isobutyl-[3-(5-methyl-thiophen-2-ylmethylene)-2-oxo-2,3-dihydro-1H-indole-5-sulfonyl]-amino}-propyl)-carbamic acid hexahydro-furo[2,3-b]furan-3-yl ester]	2.6	100	3.0	6.8	12.6	3.0	3.8	7.1	11.5	–
CC(C)C=C1C(=O)Nc2ccc(S(=O)(=O)N(CC(C)C)CC(O)C(Cc3ccccc3)NC(=O)OC3COC4OCCC34)cc21 (stereo not shown) [Compound 6, {1-Benzyl-2-hydroxy-3-[isobutyl-(3-isobutylidene-2-oxo-2,3-dihydro-1H-indole-5-sulfonyl)-amino]-propyl}-carbamic acid hexahydro-furo[2,3-b]furan-3-yl ester]	1.6	50.1	2.5	7.9	20	1.4	7.1	2.0	19.5	–
Cc1ccc(C=C2C(=O)Nc3ccc(S(=O)(=O)N(CC(C)C)CC(OP(=O)(O)O)C(Cc4ccccc4)NC(=O)OC4COC5OCCC45)cc32)o1 (stereo not shown) [Compound 19, (1-Benzyl-3-{isobutyl-[3-(5-methyl-furan-2-ylmethylene)-2-oxo-2,3-dihydro-1H-indole-5-sulfonyl]-amino}-2-phosphonooxy-propyl)-carbamic acid hexahydro-furo[2,3-b]furan-3-yl ester]	–	–	–	–	–	–	–	–	302	–
CC(C)CN(CC(O)C(Cc1ccccc1)NC(=O)OC1COC2OCCC12)S(=O)(=O)c1ccc2c(c1)C(=Cc1ccc[nH]1)C(=O)N2 (stereo not shown) [Compound 1, (1-Benzyl-2-hydroxy-3-{isobutyl-[2-oxo-3-(1H-pyrrol-2-ylmethylene)-2,3-dihydro-1H-indole-5-sulfonyl]-amino}-propyl)-carbamic acid hexahydrofuro[2,3-b]furan-3-yl ester]	2.1	12.6	4.3	10	3.16	2.0	8.7	6.2	3.16	–
CC(C)CN(CC(O)C(Cc1ccccc1)NC(=O)OC1COC2OCCC12)S(=O)(=O)c1ccc2c(c1)C(=Cc1ccc(C(=O)O)cc1)C(=O)N2 (stereo not shown) [Compound 20, 4-(5-{[3-(Hexahydro-furo[2,3-b]furan-3-yloxycarbonylamino)-2-hydroxy-4-phenyl-butyl]-isobutyl-sulfamoyl}-2-oxo-1,2-dihydro-indol-3-ylidenemethyl)-benzoic acid]	–	–	–	–	–	–	–	–	891	–
CCC(C=C1C(=O)Nc2ccc(S(=O)(=O)N(CC(C)C)CC(O)C(Cc3ccccc3)NC(=O)OC3COC4OCCC34)cc21)CC (stereo not shown) [Compound 5, (1-Benzyl-3-{[3-(2-ethyl-butylidene)-2-oxo-2,3-dihydro-1H-indole-5-sulfonyl]-isobutyl-amino}-2-hydroxy-propyl)-carbamic acid hexahydro-furo[2,3-b]furan-3-yl ester]	2.0	63.1	1.9	6.5	15.8	2.0	8.3	4.2	16.6	–
CC(C)CN(CC(O)C(Cc1ccccc1)NC(=O)OC1COC2OCCC12)S(=O)(=O)c1ccc2c(c1)/C(=C\c1ccco1)C(=O)N2 (stereo not shown) [Compound 7, Hexahydrofuro[2,3-b]furan-3-yl N-{1-benzyl-3-[({3-[(E)-2-furylmethylidene]-2-oxo-2,3-dihydro-1H-indol-5-yl}sulfonyl) (isobutyl)amino]-2-hydroxypropyl}carbamate]	1.7	79.4	1.8	1.9	20	2.4	2.6	5.9	19.5	–
CC(C)CN(CC(O)C(Cc1ccccc1)NC(=O)OC1COC2OCCC12)S(=O)(=O)c1ccc2c(c1)C(=Cc1cccn1C)C(=O)N2 (stereo not shown) [Compound 4, (1-Benzyl-2-hydroxy-3-{isobutyl-[3-(1-methyl-1H-pyrrol-2-ylmethylene)-2-oxo-2,3-dihydro-1H-indole-5-sulfonyl]-amino}-propyl)-carbamic acid hexahydro-furo[2,3-b]furan-3-yl ester]	1.7	100	2.3	2.0	15.8	1.9	1.9	2.4	15.5	–
Cc1ccc(C=C2C(=O)Nc3ccc(S(=O)(=O)N(CC(C)C)CC(O)C(Cc4ccccc4)NC(=O)OC4COC5OCCC45)cc32)o1 (stereo not shown) [Compound 2, (1-Benzyl-2-hydroxy-3-{isobutyl-[3-(5-methyl-furan-2-ylmethylene)-2-oxo-2,3-dihydro-1H-indole-5-sulfonyl]-amino}-propyl)-carbamic acid hexahydro-furo[2,3-b]furan-3-yl ester]	1	20	1.7	3.9	–	3.8	3.6	3.1	8.51	9.77
COc1ccc(C=C2C(=O)Nc3ccc(S(=O)(=O)N(CC(C)C)CC(O)C(Cc4ccccc4)NC(=O)OC4COC5OCCC45)cc32)cc1 (stereo not shown) [Compound 8, (1-Benzyl-2-hydroxy-3-{isobutyl-[3-(4-methoxy-benzylidene)-2-oxo-2,3-dihydro-1H-indole-5-sulfonyl]-amino}-propyl)-carbamic acid hexahydro-furo[2,3-b]furan-3-yl ester]	1.5	63.1	1.7	1.7	20	1.5	5.0	2.0	20	–
